Test results from patent publication US6737383B1, “Herbicidal oxadiazolidines” (priority 1999, dated 2004).

Experiments:
rape = experiment: Test B pre/postemergence rape; type: in vivo, Brassica napus
Procedure, shortened: (§1)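 Response is a visual 0-to-10 score relative to untreated plants, where 0 means no effect and 10 means complete control, taken twelve to sixteen days after application. Treatments went onto soil at planting and onto foliage of 1- to 4-leaf plants, using a surfactant-containing non-phytotoxic solvent.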

pigweed = experiment: Test B pre/postemergence pigweed; type: in vivo, Amaranthus retroflexus
Procedure, shortened: as §1

velvetleaf = experiment: Test B pre/postemergence velvetleaf; type: in vivo, Abutilon theophrasti
Procedure, shortened: as §1

wheat = experiment: Test B pre/postemergence wheat; type: in vivo, Triticum aestivum
Procedure, shortened: as §1

cocklebur = experiment: Test B pre/postemergence cocklebur; type: in vivo, Xanthium strumarium
Procedure, shortened: as §1

purple nutsedge = experiment: Test B pre/postemergence purple nutsedge; type: in vivo, Cyperus rotundus; settings: Postemergence
Procedure, shortened: as §1

rice = experiment: Test B flood test rice; type: in vivo, Oryza sativa
Procedure, shortened: (§2)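 Flood test on plants grown to the 2-leaf stage; treated plants kept in greenhouse twelve to sixteen days, then visually rated against controls on a 0 (no effect) to 10 (complete control) scale.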

crabgrass = experiment: Test B pre/postemergence crabgrass; type: in vivo, Digitaria sanguinalis
Procedure, shortened: as §1

duck salad = experiment: Test B flood test duck salad; type: in vivo, Heteranthera limosa
Procedure, shortened: as §2

blackgrass = experiment: Test B pre/postemergence blackgrass; type: in vivo, Alopecurus myosuroides
Procedure, shortened: as §1

sugar beet = experiment: Test B pre/postemergence sugar beet; type: in vivo, Beta vulgaris
Procedure, shortened: as §1

corn = experiment: Test B pre/postemergence corn; type: in vivo, Zea mays
Procedure, shortened: as §1

soybean = experiment: Test B pre/postemergence soybean; type: in vivo, Glycine max
Procedure, shortened: as §1

giant foxtail = experiment: Test B pre/postemergence giant foxtail; type: in vivo, Setaria faberii
Procedure, shortened: as §1

morningglory = experiment: Test B pre/postemergence morningglory; type: in vivo, Ipomoea hederacea
Procedure, shortened: as §1

smallflower flatsedge = experiment: Test B flood test smallflower flatsedge; type: in vivo, Cyperus difformis
Procedure, shortened: as §2

[1] = Preemergence, Rate 62 g/ha, scale of 0 to 10 where 0 is no effect and 10 is complete control
[2] = Preemergence, Rate 250 g/ha, scale of 0 to 10 where 0 is no effect and 10 is complete control
[3] = Preemergence, Rate 500 g/ha, scale of 0 to 10 where 0 is no effect and 10 is complete control
[4] = Rate 62 g/ha, Postemergence, scale of 0 to 10 where 0 is no effect and 10 is complete control
[5] = Rate 125 g/ha, Postemergence, scale 0 to 10
[6] = Rate 125 g/ha, Preemergence, scale of 0 to 10 where 0 is no effect and 10 is complete control
[7] = Rate 500 g/ha, Postemergence, scale 0 to 10
[8] = Rate 62 g/ha, headed Pre-emergence (flood test species), scale 0 to 10 (0 no effect, 10 complete control)
[9] = Rate 125 g/ha, Pre-emergence, flood test species, scale 0 to 10 where 0 is no effect and 10 is complete control
[10] = Rate 250 g/ha, Pre-emergence, flood-test species, scale 0 to 10, 0 is no effect, 10 is complete control
[11] = Rate 500 g/ha, Pre-emergence, flood test species, scale 0 to 10 (0 no effect, 10 complete control)

For `CC(=O)OCCCCn1c(=O)on(C(=O)N(c2ccc(F)cc2)C(C)C)c1=O` [Compound 211], the “Rape plant response rating” value (rape; [1]) was 0, the “Rape plant response rating” value (rape; [2]) was 0 and the “Plant response rating, Rape” value (rape; [3]) was 4. The “Rape plant response rating” value (rape; [4]) was 2, the “Rape plant response rating” value (rape; [5]) was 2 and the “Rape plant response rating” value (rape; [6]) was 0. The “Plant response rating (0 to 10; 0 is no effect, 10 is complete control), Rape” value (rape; Rate 250 g/ha, Postemergence) was 2, the “Rape plant response rating” value (rape; [7]) was 3 and the “Redroot pigweed plant response rating” value (pigweed; [1]) was 0. For the same compound, the “Redroot pigweed plant response rating” value (pigweed; [2]) was 3, the “Plant response rating, Redroot pigweed” value (pigweed; [3]) was 7 and the “Redroot pigweed plant response rating” value (pigweed; [4]) was 2. For the same compound, the “Redroot pigweed plant response rating” value (pigweed; [5]) was 4, the “Redroot pigweed plant response rating” value (pigweed; [6]) was 0 and the “Plant response rating (0 to 10; 0 is no effect, 10 is complete control), Redroot pigweed” value (pigweed; Rate 250 g/ha, Postemergence) was 4. The “Redroot pigweed plant response rating” value (pigweed; [7]) was 5, the “Velvetleaf plant response rating” value (velvetleaf; [1]) was 0 and the “Velvetleaf plant response rating” value (velvetleaf; [2]) was 0. The “Plant response rating, Velvetleaf” value (velvetleaf; [3]) was 0, the “Velvetleaf plant response rating” value (velvetleaf; [4]) was 0 and the “Velvetleaf plant response rating” value (velvetleaf; [5]) was 0. For the same compound, the “Velvetleaf plant response rating” value (velvetleaf; [6]) was 0, the “Plant response rating (0 to 10; 0 is no effect, 10 is complete control), Velvetleaf” value (velvetleaf; Rate 250 g/ha, Postemergence) was 1 and the “Wheat plant response rating” value (wheat; [1]) was 0. For the same compound, the “Wheat plant response rating” value (wheat; [2]) was 0, the “Plant response rating, Wheat” value (wheat; [3]) was 5 and the “Wheat plant response rating” value (wheat; [4]) was 0. For the same compound, the “Wheat plant response rating” value (wheat; [5]) was 0, the “Wheat plant response rating” value (wheat; [6]) was 0 and the “Plant response rating (0 to 10; 0 is no effect, 10 is complete control), Wheat” value (wheat; Rate 250 g/ha, Postemergence) was 0. For the same compound, the “Cocklebur plant response rating” value (cocklebur; [1]) was 0, the “Cocklebur plant response rating” value (cocklebur; [2]) was 0 and the “Plant response rating, Cocklebur” value (cocklebur; [3]) was 0. For the same compound, the “Cocklebur plant response rating” value (cocklebur; [4]) was 0, the “Cocklebur plant response rating” value (cocklebur; [5]) was 0 and the “Cocklebur plant response rating” value (cocklebur; [6]) was 0. The “Plant response rating (0 to 10; 0 is no effect, 10 is complete control), Cocklebur” value (cocklebur; Rate 250 g/ha, Postemergence) was 0, the “Cocklebur plant response rating” value (cocklebur; [7]) was 0 and the “Nutsedge plant response rating” value (purple nutsedge; Rate 62 g/ha, scale of 0 to 10 where 0 is no effect and 10 is complete control) was 0. For the same compound, the “Nutsedge plant response rating” value (purple nutsedge; Rate 125 g/ha, scale 0 to 10) was 0, the “Plant response rating (0 to 10; 0 is no effect, 10 is complete control), Nutsedge” value (purple nutsedge; Rate 250 g/ha) was 0 and the “Nutsedge plant response rating” value (purple nutsedge; Rate 500 g/ha, scale 0 to 10) was 0. For the same compound, the “Rice plant response rating” value (rice; [8]) was 0, the “Rice plant response rating” value (rice; [9]) was 0 and the “Rice plant response rating” value (rice; [10]) was 0. The “Rice plant response rating” value (rice; [11]) was 0, the “Crabgrass plant response rating” value (crabgrass; [1]) was 0 and the “Crabgrass plant response rating” value (crabgrass; [2]) was 3. The “Plant response rating, Crabgrass” value (crabgrass; [3]) was 3, the “Crabgrass plant response rating” value (crabgrass; [4]) was 0 and the “Crabgrass plant response rating” value (crabgrass; [5]) was 0. The “Crabgrass plant response rating” value (crabgrass; [6]) was 0, the “Plant response rating (0 to 10; 0 is no effect, 10 is complete control), Crabgrass” value (crabgrass; Rate 250 g/ha, Postemergence) was 1 and the “Crabgrass plant response rating” value (crabgrass; [7]) was 3. The “Ducksalad plant response rating” value (duck salad; [8]) was 0, the “Ducksalad plant response rating” value (duck salad; [9]) was 0 and the “Ducksalad plant response rating” value (duck salad; [10]) was 0. The “Ducksalad plant response rating” value (duck salad; [11]) was 0, the “Blackgrass plant response rating” value (blackgrass; [1]) was 6 and the “Blackgrass plant response rating” value (blackgrass; [2]) was 9. For the same compound, the “Plant response rating, Blackgrass” value (blackgrass; [3]) was 9, the “Blackgrass plant response rating” value (blackgrass; [4]) was 2 and the “Blackgrass plant response rating” value (blackgrass; [5]) was 3. For the same compound, the “Blackgrass plant response rating” value (blackgrass; [6]) was 9, the “Plant response rating (0 to 10; 0 is no effect, 10 is complete control), Blackgrass” value (blackgrass; Rate 250 g/ha, Postemergence) was 4 and the “Blackgrass plant response rating” value (blackgrass; [7]) was 4. For the same compound, the “Sugarbeets plant response rating” value (sugar beet; [1]) was 0, the “Sugarbeets plant response rating” value (sugar beet; [2]) was 0 and the “Plant response rating, Sugarbeets” value (sugar beet; [3]) was 8. The “Sugarbeets plant response rating” value (sugar beet; [4]) was 0, the “Sugarbeets plant response rating” value (sugar beet; [5]) was 2 and the “Sugarbeets plant response rating” value (sugar beet; [6]) was 0. For the same compound, the “Plant response rating (0 to 10; 0 is no effect, 10 is complete control), Sugarbeets” value (sugar beet; Rate 250 g/ha, Postemergence) was 2, the “Sugarbeets plant response rating” value (sugar beet; [7]) was 2 and the “Corn plant response rating” value (corn; [1]) was 0. The “Corn plant response rating” value (corn; [2]) was 0, the “Plant response rating, Corn” value (corn; [3]) was 0 and the “Corn plant response rating” value (corn; [4]) was 0. For the same compound, the “Corn plant response rating” value (corn; [5]) was 0, the “Corn plant response rating” value (corn; [6]) was 0 and the “Plant response rating (0 to 10; 0 is no effect, 10 is complete control), Corn” value (corn; Rate 250 g/ha, Postemergence) was 0. For the same compound, the “Corn plant response rating” value (corn; [7]) was 0, the “Soybean plant response rating” value (soybean; [1]) was 0 and the “Soybean plant response rating” value (soybean; [2]) was 0. The “Plant response rating, Soybean” value (soybean; [3]) was 0, the “Soybean plant response rating” value (soybean; [4]) was 3 and the “Soybean plant response rating” value (soybean; [5]) was 4. For the same compound, the “Soybean plant response rating” value (soybean; [6]) was 0, the “Plant response rating (0 to 10; 0 is no effect, 10 is complete control), Soybean” value (soybean; Rate 250 g/ha, Postemergence) was 4 and the “Soybean plant response rating” value (soybean; [7]) was 4. The “Giant foxtail plant response rating” value (giant foxtail; [1]) was 3, the “Giant foxtail plant response rating” value (giant foxtail; [2]) was 7 and the “Plant response rating, Giant foxtail” value (giant foxtail; [3]) was 8. For the same compound, the “Giant foxtail plant response rating” value (giant foxtail; [4]) was 0, the “Giant foxtail plant response rating” value (giant foxtail; [5]) was 0 and the “Giant foxtail plant response rating” value (giant foxtail; [6]) was 4. The “Plant response rating (0 to 10; 0 is no effect, 10 is complete control), Giant foxtail” value (giant foxtail; Rate 250 g/ha, Postemergence) was 2, the “Giant foxtail plant response rating” value (giant foxtail; [7]) was 3 and the “Morningglory plant response rating” value (morningglory; [1]) was 0. The “Morningglory plant response rating” value (morningglory; [2]) was 0, the “Plant response rating, Morningglory” value (morningglory; [3]) was 0 and the “Morningglory plant response rating” value (morningglory; [4]) was 4. For the same compound, the “Morningglory plant response rating” value (morningglory; [5]) was 6, the “Morningglory plant response rating” value (morningglory; [6]) was 0 and the “Plant response rating (0 to 10; 0 is no effect, 10 is complete control), Morningglory” value (morningglory; Rate 250 g/ha, Postemergence) was 6. The “Morningglory plant response rating” value (morningglory; [7]) was 6, the “S. Flatsedge plant response rating” value (smallflower flatsedge; [8]) was 0 and the “S. Flatsedge plant response rating” value (smallflower flatsedge; [9]) was 0. The “S. Flatsedge plant response rating” value (smallflower flatsedge; [10]) was 0 and the “S. Flatsedge plant response rating” value (smallflower flatsedge; [11]) was 0.
